# Test results taken from patent US8158606B2, “β-L-2′-deoxynucleosides for the treatment of resistant HBV strains and combination therapies” (priority 2002, dated 2012).
# Columns and labels:
# [1] = tested on: M552V mutant HBV, cell line V1/C9; assay: Antiviral testing in stable HepG2 cell lines, EPA of intracellular nucleocapsids; format: cell-based, hepatitis B virus; conditions: M552V single mutant
# Experimental: (§1) Recombinant DNA constructs corresponding to these lamivudine-resistant mutants were created by site directed mutagenesis. The test system comprised stable cell lines harboring each of the transfected mutant genomes, as well as a wild-type control HBV genome. The antiviral activity of LdT (telbivudine) and LdC, together with the control drugs lamivudine and PMEA, was determined against the mutant and wild-type HBV genomes in the respective test cell lines.
# (§2) Endogenous Polymerase Assay (EPA) of cell lysate: Cells were grown in 12-well collagen plates to 100% confluency for 3-4 days and cytosolic lysates were prepared in 1 ml of 50 mM Tris-HCl pH 7.4, 150 mM NaCl, 5 mM MgCl2, 0.2% NP-40. EPAs were essentially performed as described (Seifer et al., 1998). […] The immobilized capsids were then washed, endogenous polymerase reactions were initiated in 50 ul reaction volume containing 50 mM Tris-HCl pH7.4, 75 mM NH4Cl, 1 mM EDTA, 20 mM MgCl2, 0.1 mM β-ME, 0.5% NP-40, 100 μM cold dGTP, TTP, dCTP, and 50 nM ^33P-dATP (Perkin Elmer Life Sciences Cat# NEG 612H), and incubated overnight at 37° C. Following digestion with 1 mg/ml of Proteinase K (Roche, Cat#1373196) for 1 h at 37° C., ^33P-labeled HBV DNA was liberated via phenol/chloroform extraction The nucleic acids were finally precipitated with equal volumes 5M NH4-acetate and 2.5 volumes 100% EtOH and separated on a 1% native agarose gel in Tris-borate buffer. Gels were either fixed with 7% TCA, then dried, or blotted onto positively charged nylon membrane (Pall Biodyne Plus Cat#60406) overnight at room temperature via capillary transfer in 0.4 N NaOH. Dried gels/membranes were exposed to a phosphoimager screen (Molecular Dynamics) overnight at room temperature, then scanned (Storm 860, Molecular Dynamics) and quantitated with ImageQuant (Molecular Dynamics) software.
# (§3) 12-well Biocoat collagen I plates (Becton Dickinson Cat#35-4500) are seeded with cells at a density of 0.5-1×10^6 cells per well in 2 ml DMEM containing 5% FBS, 2 mM L-glutamine, 100 I.U. penicillin/100 μg/mL streptomycin, and 0.5 mg/mL G-418.
# (§4) Drug dilutions are prepared freshly in 100% DMSO as 200× stocks. For each experiment, 4 aliquots of each drug dilution series are stored at −20° C. until used. Once cells reach confluency, drug treatment is initiated by adding 10 μL of drug dilution into 2 ml of fresh DMEM+5% FBS. […] The no-drug control well receives only 10 μl of DMSO. Cells are treated every other day with 2 mL of fresh drug/medium for a total of 8 days. Cell lysates are then collected on day 10 as described below:
# (§5) Aspirate media and rinse cell monolayer carefully once with 1 mL of PBS.
# (§6) Add 1 ml of lysis buffer (50 mM Tris-HCl pH 7.5/150 mM NaCl/5 mM MgCl2/0.2% NP-40). Store on ice for 30 min to 4 h.
# (§7) Harvest lysed cells. Transfer to 1.5 ml microfuge tubes.
# (§8) Clarify lysate by spinning for 5 min at RT and 14,000 rpm.
# (§9) Transfer clarified lysate to fresh tubes. Snap-freeze on dry-ice and store at −80° C. until ready to continue with endogenous polymerase assays essentially as described above.
# (§10) EC50's were generated from the phosphorimager data by curve fitting using Xlfit software.
# [2] = tested on: L515M/M552V mutant HBV, cell line MV5/B3; assay: as above; format: cell-based, hepatitis B virus; conditions: Hepatitis B virus, HepG2, L515M/M552V, cell line MV5/B3; mean ± SD of three to four experiments; read-out: EC50
# Experimental: as §1, §2, §3, §4, §5, §6, §7, §8, §9, §10
# [3] = tested on: L515M/M552I mutant HBV, cell line MI4; assay: as above; format: cell-based, hepatitis B virus; conditions: Hepatitis B virus, HepG2, L515M/M552I double mutant
# Experimental: as §1, §2, §3, §4, §5, §6, §7, §8, §9, §10
# [4] = tested on: M552I mutant HBV, cell line I2; assay: as above; format: cell-based, hepatitis B virus; conditions: Hepatitis B virus, HepG2, M552I single mutant
# Experimental: as §1, §2, §3, §4, §5, §6, §7, §8, §9, §10
# [5] = Single-dose bioavailability of L-dC in the rhesus monkey
# Experimental: (§11) The drug was detected and concentration determined using a reverse-phase HPLC technique. The blood and urine drug level data were analyzed by a non-modeling mathematical method and AUCs derived by the linear trapezoidal rule.
# [6] = Single-dose bioavailability of L-dC in the rat; conditions: Sprague-Dawley, plasma, 10 mg/kg
# Experimental: (§12) The drug was detected and the concentration determined in plasma and urine using a reverse-phase HPLC technique. The data were analyzed by a non-modeling mathematical method and the AUCs derived by the linear trapezoidal rule.
# [7] = Single-dose bioavailability of L-dC in the woodchuck; format: in vivo; conditions: for half-life: in vivo, read-out: t1/2 of L-dC (converted); for bioavailability: po, 10 mg/kg, L-dC 10 mg/kg PO vs IV; for AUC(0-t): read-out: AUCt→24 of L-dC
# Experimental: Plasma drug levels, CL, ty, and F were determined.
# [8] = tested on: Human DNA polymerases and mitochondrial function; assay: Effect on human DNA polymerases and mitochondrial function in vitro
# Source text: Human DNA polymerases and mitochondrial function were not affected by L-dC in vitro. L-dC was non-cytotoxic to human peripheral blood mononuclear cells (PBMCs), bone marrow progenitor cells and numerous cell lines of human and other non-human mammalian origin.
# in vivo [9] = conditions: Sprague-Dawley, rat, 10 mg/kg
# Experimental: as §12
# human plasma proteins = format: in vitro ADME; conditions: ex vivo, ultrafiltration
# [10] = Bioavailability of the prodrugs of L-dC; conditions: cynomolgus monkey, plasma, po, 10 mg/kg
# in vivo [11] = conditions: rhesus monkey, po, 10 mg/kg
# Experimental: as §11
# [12] = rhesus monkey, blood, po, 10 mg/kg
# [13] = plasma, L-dC 10 mg/kg single IV dose, mean
# [14] = plasma, L-dC 10 mg/kg single PO dose, mean
compound,measurement,setting,value
"Nc1ccn([C@@H]2CC(O)[C@H](CO)O2)c(=O)n1 (stereo partly drawn) [L-dC, 2′-Deoxy-β-L-cytidine]","activity against the mutant, in words",[1],retained almost complete activity
same,EC50,[2],~780 µM
same,EC50,[3],> 1000 µM
same,EC50,[4],> 1000 µM
same,L-dC as share of drug excreted in the urine,[5]; L-dC 10 mg/kg oral,~77%
same,administered oral dose recovered in urine after 48 hours,[5]; L-dC 10 mg/kg oral,15%
same,administered oral dose recovered in urine within 8 hours,[5]; L-dC 10 mg/kg oral,Approximately 8.5%
same,CL renal,"[5]; rhesus monkey, blood and urine, po, 10 mg/kg",4.55 mL/min/kg
same,AUC,[5]; [12],12.2 µM·h
same,Cmax,[5]; [12],3.23 µM
same,Tmax,[5]; [12],0.83 h
same,bioavailability,[5]; [12],~16%
same,bioavailability,[6]; oral,15.4%
same,AUC(0-t),[6]; po,4.77 µM·h
same,Cmax,[6]; po,1.5 µM
same,Tmax,[6]; po,1 h
same,AUC(0-t),"[6]; female, iv",30.1 µM·h
same,Cmax,"[6]; female, iv",91.1 µM
same,Tmax,"[6]; female, iv",0 h
same,Vd,"[6]; female, iv",2.53 L/kg
same,clearance,"[6]; female, iv",24 mL/min/kg
same,half-life,"[7]; L-dC 10 mg/kg single IV dose, mean",2.85 h
same,half-life,"[7]; L-dC 10 mg/kg single PO dose, mean",5.22 h
same,bioavailability,"[7]; plasma, read-out: oral bioavailability (F), average",9.57%
same,bioavailability,"[7]; plasma, read-out: oral bioavailability, range of animals",5.6 to 16.9%
same,Tmax,"[7]; plasma, L-dC 10 mg/kg single IV dose",0 h
same,Vd,[7]; [13],1.17 L/kg
same,clearance,[7]; [13],6.5 mL/min/kg
same,Cmax,"[7]; plasma, L-dC 10 mg/kg single IV dose, mean, at 2 minutes post-dose",112 µM
same,AUC(0-t),"[7]; plasma, L-dC 10 mg/kg single IV dose, n=3, t = 0.033 hours, mean",174 µM·h
same,Cmax,[7]; [14],1.37 µM
same,Tmax,[7]; [14],3 h
same,AUC(0-t),"[7]; plasma, L-dC 10 mg/kg single PO dose, n=3, t = 0.25 hours, mean",11.3 µM·h
same,effect on human DNA polymerases and mitochondrial function,[8],not affected
same,half-life,in vivo [9]; po,2.52 h
same,half-life,"in vivo [9]; female, iv",1.21 h
same,binding to human plasma proteins,human plasma proteins,19.7%
same,bioavailability,[10],16.4 ± 5%
same,half-life,in vivo [11],3.34 h
